Results reported in patent US7812178B2, “Isoquinoline compound and pharmaceutical use thereof” (Mitsubishi Tanabe Pharma Corporation, priority 2002, dated 2010).
Values belong to the compound of their own block, whether it stands above or below them.

Columns and labels:
[1] = Determination of stability in physiological saline at room temperature (residual ratio by HPLC); type: physicochemical; conditions: for Residual rate (%) under non-shielding 7 days later / Residual rate (%) under shielding 7 days later: day 7; for Residual rate (%) under non-shielding 11 days later / Residual rate (%) under shielding 11 days later: day 11
Method: Each compound was dissolved in physiological saline to give solutions having a concentration of 1.0 mg/mL or 10 mg/mL. They were preserved at room temperature, under shielding or non-shielding and the residual ratio at day 7 and day 11 was measured by HPLC. […]
column: Inertsil ODS3V (GL Science Inc.)
Mobile phase: methanol: 0.01 mol/L aqueous ammonium acetate solution detection wavelength: 254 nm

recombinant human PARP = biological target: T1, recombinant human PARP (Homo sapiens, UniProt P09874); test: PARP enzyme activity inhibitory action (3H-NAD poly ADP-ribosylation, filter assay); type: biochemical; conditions: 25° C., 15 min
T1 construct: purchased Trevigen 4667-02X
T1 sequence (P09874 whole entry): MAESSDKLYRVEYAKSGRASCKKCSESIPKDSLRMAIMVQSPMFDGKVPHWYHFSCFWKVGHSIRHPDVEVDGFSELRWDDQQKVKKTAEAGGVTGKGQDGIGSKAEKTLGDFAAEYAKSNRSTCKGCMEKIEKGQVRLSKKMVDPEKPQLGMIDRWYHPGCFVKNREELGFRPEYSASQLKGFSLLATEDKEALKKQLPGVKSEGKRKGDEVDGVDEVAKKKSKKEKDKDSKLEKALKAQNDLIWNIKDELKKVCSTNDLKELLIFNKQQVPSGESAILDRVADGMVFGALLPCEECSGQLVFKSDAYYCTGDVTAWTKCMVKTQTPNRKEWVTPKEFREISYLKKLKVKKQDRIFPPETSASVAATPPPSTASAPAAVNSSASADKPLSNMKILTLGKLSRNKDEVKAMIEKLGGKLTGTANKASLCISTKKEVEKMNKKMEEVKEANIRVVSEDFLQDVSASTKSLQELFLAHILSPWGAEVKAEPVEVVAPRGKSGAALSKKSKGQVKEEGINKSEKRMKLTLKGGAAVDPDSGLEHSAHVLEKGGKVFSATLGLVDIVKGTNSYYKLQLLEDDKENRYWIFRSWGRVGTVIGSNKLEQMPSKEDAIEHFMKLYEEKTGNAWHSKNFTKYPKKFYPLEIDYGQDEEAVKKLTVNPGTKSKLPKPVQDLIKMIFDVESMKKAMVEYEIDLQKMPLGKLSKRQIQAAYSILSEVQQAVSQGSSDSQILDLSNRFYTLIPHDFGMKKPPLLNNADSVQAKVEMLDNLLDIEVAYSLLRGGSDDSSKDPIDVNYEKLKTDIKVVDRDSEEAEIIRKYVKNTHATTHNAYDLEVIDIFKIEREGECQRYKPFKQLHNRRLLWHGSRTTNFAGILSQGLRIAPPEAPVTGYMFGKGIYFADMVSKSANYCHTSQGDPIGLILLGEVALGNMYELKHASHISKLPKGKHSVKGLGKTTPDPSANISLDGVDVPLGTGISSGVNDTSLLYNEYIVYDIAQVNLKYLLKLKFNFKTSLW
Method: After incubation at 25° C. for 15 min., the reaction was stopped with 20% trichloroacetic acid, and the resulting acid insoluble fraction was adsorbed to a GF/B filter. The filter was washed several times with 5% trichloroacetic acid, and the radiation dose on the filter was measured with a liquid scintillation counter.

[2] = 1.0 mg/mL in physiological saline
[3] = 10 mg/mL in physiological saline

- Residual rate (%) under non-shielding 7 days later [1, 2]: ≈100%
- Residual rate (%) under non-shielding 11 days later [1, 2]: ≈100%
- Residual rate (%) under shielding 7 days later [1, 2]: ≈100%
- Residual rate (%) under shielding 11 days later [1, 2]: ≈100%
- Residual rate (%) under non-shielding 7 days later [1, 3]: ≈100%
- Residual rate (%) under non-shielding 11 days later [1, 3]: ≈100%
- Residual rate (%) under shielding 7 days later [1, 3]: ≈100%
- Residual rate (%) under shielding 11 days later [1, 3]: ≈100%
- IC50 (recombinant human PARP): 0.029 µM
Compound: Cc1cccc2c(=O)[nH]c(CCN3CCC[C@@H]3CO)cc12 [Ex. 36a, (R)-3-[2-(2-hydroxymethylpyrrolidin-1-yl)ethyl]-5-methyl-2H-isoquinolin-1-one]

- melting point: 197 to 199 °C
Compound: Cc1cccc2c(=O)[nH]c(C3CCN(CCCO)CC3)cc12 [Example 23a, 5-methyl-3-[1-(3-hydroxypropyl)piperidin-4-yl]-2H-isoquinolin-1-one]

- IC50 (recombinant human PARP): 0.046 µM
Compound: Cc1cccc2c(=O)[nH]c(CCCN3CCC(O)C3)cc12 (stereo not shown) [Ex. 4a, 3-[3-(3-hydroxypyrrolidin-1-yl)propyl]-5-methyl-2H-isoquinolin-1-one]

- IC50 (recombinant human PARP): 0.034 µM
- melting point: 176 to 178 °C
Compound: Cc1cccc2c(=O)[nH]c(CCN3CC[C@H](O)C3)cc12 [Ex. 34a, (S)-3-[2-(3-hydroxypyrrolidin-1-yl)ethyl]-5-methyl-2H-isoquinolin-1-one]

- melting point: 184 to 185 °C
Compound: Cc1cccc2c(=O)[nH]c(CCN3CCCC(O)C3)cc12 (stereo not shown) [Example 32a, 3-[2-(3-hydroxypiperidin-1-yl)ethyl]-5-methyl-2H-isoquinolin-1-one]

- Residual rate (%) under non-shielding 7 days later [1, 2]: ≈100%
- Residual rate (%) under non-shielding 11 days later [1, 2]: ≈100%
- Residual rate (%) under shielding 7 days later [1, 2]: ≈100%
- Residual rate (%) under shielding 11 days later [1, 2]: ≈100%
- Residual rate (%) under non-shielding 7 days later [1, 3]: ≈100%
- Residual rate (%) under non-shielding 11 days later [1, 3]: ≈100%
- Residual rate (%) under shielding 7 days later [1, 3]: ≈100%
- Residual rate (%) under shielding 11 days later [1, 3]: ≈100%
- IC50 (recombinant human PARP): 0.017 µM
Compound: Cc1cccc2c(=O)[nH]c(C3CCN(CCO)CC3)cc12 [Ex. 2a, 3-[1-(2-hydroxyethyl)piperidin-4-yl]-5-methyl-2H-isoquinolin-1-one]

- Residual rate (%) under non-shielding 7 days later [1, 2]: ≈100%
- Residual rate (%) under non-shielding 11 days later [1, 2]: ≈100%
- Residual rate (%) under shielding 7 days later [1, 2]: ≈100%
- Residual rate (%) under shielding 11 days later [1, 2]: ≈100%
- Residual rate (%) under non-shielding 7 days later [1, 3]: ≈100%
- Residual rate (%) under non-shielding 11 days later [1, 3]: ≈100%
- Residual rate (%) under shielding 7 days later [1, 3]: ≈100%
- Residual rate (%) under shielding 11 days later [1, 3]: ≈100%
- IC50 (recombinant human PARP): 0.039 µM
Compound: Cc1cccc2c(=O)[nH]c(CCN3CC[C@@H](O)C3)cc12 [Ex. 1a, (R)-3-[2-(3-hydroxypyrrolidin-1-yl)ethyl]-5-methyl-2H-isoquinolin-1-one]

- IC50 (recombinant human PARP): 0.035 µM
Compound: Cc1cccc2c(=O)[nH]c(C3CCN(CCO)C3)cc12 (stereo not shown) [Ex. 28a, 3-[1-(2-hydroxyethyl)pyrrolidin-3-yl]-5-methyl-2H-isoquinolin-1-one]

- IC50 (recombinant human PARP): 0.029 µM
- melting point: 137 to 138.6 °C
Compound: Cc1cccc2c(=O)[nH]c(C3CCN(CCO)C3)cc12 (single isomer, unassigned; (+)) [Ex. 38a, (+)-3-[1-(2-hydroxylethyl)pyrrolidin-3-yl]-5-methyl-2H-isoquinolin-1-one]

- IC50 (recombinant human PARP): 0.044 µM
Compound: O=c1[nH]c(C2CCN(CCO)CC2)cc2ccccc12 [Ex. 9a, 3-[1-(2-hydroxyethyl)piperidin-4-yl]-2H-isoquinolin-1-one]

- IC50 (recombinant human PARP): 0.02 µM
- melting point: 137.3 to 138.6 °C
Compound: Cc1cccc2c(=O)[nH]c(C3CCN(CCO)C3)cc12 (single isomer, unassigned; (-)) [Ex. 37a, (−)-3-[1-(2-hydroxylethyl)pyrrolidin-3-yl]-5-methyl-2H-isoquinolin-1-one]

- melting point: 180 to 181 °C
Compound: Cc1cccc2c(=O)[nH]c(CCN3CCC[C@@H](O)C3)cc12 [Example 35a, (R)-3-[2-(3-hydroxypiperidin-1-yl)ethyl]-5-methyl-2H-isoquinolin-1-one]

- IC50 (recombinant human PARP): 0.05 µM
Compound: Cc1cccc2c(=O)[nH]c(CCN3CCC(O)C3)cc12 (stereo not shown) [Ex. 5a, 3-[2-(3-hydroxypyrrolidin-1-yl)ethyl]-5-methyl-2H-isoquinolin-1-one]
